# Reference: patent publication US10221168B1, “Small-compound enhancers for functional O-mannosylation of alpha-dystroglycan, and uses thereof” (priority 2015, dated 2019)
# System: FOG of α-DG on the cell surfaces
# Assay: Cell-based HTS/HCS assay, IIH6 antibody as probe (EC1.5)
# Conditions: concentration of the compound required to enhance the FOG of α-DG by 50% over the controls; cell-based assays in vitro
# From the text: Protein glycosylation is a multiple-step process that requires a large number of proteins in the secretory pathway of the cells. Thus we chose cell-based assay because our goal is to identify enhancer the FOG of α-DG on the cell surfaces. The assay system is HTS/HCS friendly and can adapt to various cell lines including myotubes as well as various readout methods including AlphaScreen, fluorescence density and HCS/fluorescence imaging. The standard operation protocol (SOP) for adhesion cells is described below and the FIG. 1 illustrates the assay process using myoblasts as the controls and screening cells and the IIH6 antibody as the probe. Other adhesion cells such CHO (Chinese hamster ovary) cell line can be implemented into this assay by simply removing the differentiation step.
# Cell cultures: All cells are cultured at 37° C., 5% CO2, in appropriate media (F-12 for epithelial cells and DMEM for myoblasts) supplement with 10-20% fetal calf serum (FCS) and 1% antibiotics. […] The cells will be detached with trypsin EDTA and suspended in the cell culture media. The cells will be counted and seeded into the multiple-well plates as desired. Myotubes formation: When the myoblasts reach confluence, change the growth media to differential media (DEME with 2% horse serum) and incubate for 4-5 days.
# The cells were fixed, permeablized, and then blocked with 10% BSA in PBS for 1 hour. […] After washing the cells with PBS for 2 times, the DAPI was used to stain the cells for 15 mins and wash 3 times with PBS. The images were captured with an inverted Olympus fluorescent microscope. For small compound localization experiment, the cells are incubated with the biotin conjugated compounds and then the cells were washed and incubated with streptavidin-Dye and then images will be captured to see the location of the compound-target-protein.
# H, EC1.5<5 μM; M, EC1.5-20 μM; L, EC1.5 20-50 μM; VL, EC1.5>50 μM.
row,SMILES,Activity (EC1.5)
1,"c1csc(Cn2nncc2CN2CCN(c3nc4ccccc4s3)CC2)c1 [Compound 1, 2-(4-((1-(thiophen-2-ylmethyl)-1H-1,2,3-triazol-5-yl)methyl)piperazin-1-yl)benzothiazole]",L (EC1.5 20-50 μM)
2,"c1csc(Cn2nnnc2CN2CCN(c3nc4ccccc4s3)CC2)c1 [Compound 2, 2-(4-((1-(thiophen-2-ylmethyl)-1H-tetrazol-5-yl)methyl)piperazin-1-yl)benzothiazole]",M (EC1.5-20 μM)
3,"CC(c1nnnn1Cc1cccs1)N1CCN(c2nc3ccccc3s2)CC1 (stereo not drawn) [Compound 3, 2-(4-(1-(1-(thiophen-2-ylmethyl)-1H-tetrazol-5-yl)ethyl)piperazin-1-yl)benzothiazole]",M (EC1.5-20 μM)
4,"CCC(c1nnnn1Cc1ccco1)N1CCC(c2nc3ccccc3s2)CC1 (stereo not drawn) [Compound 4, 2-(1-(1-(1-(furan-2-ylmethyl)-1H-tetrazol-5-yl)propyl)piperidin-4-yl)benzothiazole]",M (EC1.5-20 μM)
5,"CCC(c1nnnn1Cc1ccco1)N1CCN(c2nc3ccccc3s2)CC1 (stereo not drawn) [Compound 5, 2-(4-(1-(1-(furan-2-ylmethyl)-1H-tetrazol-5-yl)propyl)piperazin-1-yl)benzothiazole]",M (EC1.5-20 μM)
6,"CCC(c1nnnn1Cc1cccs1)N1CCN(c2nc3ccccc3s2)CC1 (stereo not drawn) [Compound 6, 2-(4-(1-(1-(thiophen-2-ylmethyl)-1H-tetrazol-5-yl)propyl)piperazin-1-yl)benzothiazole]",M (EC1.5-20 μM)
7,"CCC(c1nnnn1Cc1cccs1)N1CCN(c2nc3ccccc3o2)CC1 (stereo not drawn) [Compound 7, 2-(4-(1-(1-(thiophen-2-ylmethyl)-1H-tetrazol-5-yl)propyl)piperazin-1-yl)benzoxazole]",M (EC1.5-20 μM)
8,"CCC(c1nnnn1Cc1cccs1)N1CCC(c2nc3ccccc3s2)CC1 (stereo not drawn) [Compound 8, 2-(1-(1-(1-(thiophen-2-ylmethyl)-1H-tetrazol-5-yl)propyl)piperidin-4-yl)benzothiazole]",M (EC1.5-20 μM)
9,"CCC(c1nnnn1Cc1cccs1)N1CCN(c2nc3ccccc3[nH]2)CC1 (stereo not drawn) [Compound 9, 2-(4-(1-(1-(thiophen-2-ylmethyl)-1H-tetrazol-5-yl)propyl)piperazin-1-yl)-1H-benzimidazole]",L (EC1.5 20-50 μM)
10,"CCC(c1nnnn1Cc1cccs1)N1CCN(c2nc3ccc([N+](=O)[O-])cc3s2)CC1 (stereo not drawn) [Compound 10, 6-nitro-2-(4-(1-(1-(thiophen-2-ylmethyl)-1H-tetrazol-5-yl)propyl)piperazin-1-yl)benzothiazole]",VL (EC1.5>50 μM)
11,"CCC(c1nnnn1Cc1cccs1)N1CCN(c2nc3ccc(N)cc3s2)CC1 (stereo not drawn) [Compound 11, 6-amino-2-(4-(1-(1-(thiophen-2-ylmethyl)-1H-tetrazol-5-yl)propyl)piperazin-1-yl)benzothiazole]",M (EC1.5-20 μM)
12,"CCC(c1nnnn1Cc1cccs1)N1CCN(c2nc3ccc(NC(=O)CCCC[C@@H]4SC[C@@H]5NC(=O)N[C@@H]54)cc3s2)CC1 (stereo partly drawn) [Compound 12, 5-((3aS,4S,6aR)-2-oxohexahydro-1H-thieno[3,4-d]imidazol-4-yl)-N-(2-(4-(1-(1-(thiophen-2-ylmethyl)-1H-tetrazol-5-yl)propyl)piperazin-1-yl)benzothiazol-6-yl)pentanamide]",H (EC1.5<5 μM)
13,"CCC(c1nnnn1Cc1cccs1)N1CCN(c2nc3ccc(F)cc3s2)CC1 (stereo not drawn) [Compound 13, 6-fluoro-2-(4-(1-(1-(thiophen-2-ylmethyl)-1H-tetrazol-5-yl)propyl)piperazin-1-yl)benzothiazole]",L (EC1.5 20-50 μM)
14,"CCC(c1nnnn1Cc1cccs1)N1CCN(c2nc3ccc(OC)cc3s2)CC1 (stereo not drawn) [Compound 14, 6-methoxy-2-(4-(1-(1-(thiophen-2-ylmethyl)-1H-tetrazol-5-yl)propyl)piperazin-1-yl)benzothiazole]",M (EC1.5-20 μM)
15,"CCC(c1nnnn1Cc1cccs1)N1CCN(c2nc3ccc(Cl)cc3s2)CC1 (stereo not drawn) [Compound 15, 6-chloro-2-(4-(1-(1-(thiophen-2-ylmethyl)-1H-tetrazol-5-yl)propyl)piperazin-1-yl)benzothiazole]",M (EC1.5-20 μM)
16,"CCC(c1nnnn1Cc1cccs1)N1CCN(c2nc3ccc(C)cc3s2)CC1 (stereo not drawn) [Compound 16, 6-methyl-2-(4-(1-(1-(thiophen-2-ylmethyl)-1H-tetrazol-5-yl)propyl)piperazin-1-yl)benzothiazole]",L (EC1.5 20-50 μM)
17,"CCC(c1nnnn1Cc1cccs1)N1CCN(c2nc3ccc(-c4ccccc4)cc3s2)CC1 (stereo not drawn) [Compound 17, 6-phenyl-2-(4-(1-(1-(thiophen-2-ylmethyl)-1H-tetrazol-5-yl)propyl)piperazin-1-yl)benzothiazole]",VL (EC1.5>50 μM)
18,"CCC(c1nnnn1Cc1cccs1)N1CCN(c2nc3ccc(NC(=O)c4ccccc4Cl)cc3s2)CC1 (stereo not drawn) [Compound 18, 2-chloro-N-(2-(4-(1-(1-(thiophen-2-ylmethyl)-1H-tetrazol-5-yl)propyl)piperazin-1-yl)benzothiazol-6-yl)benzamide]",VL (EC1.5>50 μM)
19,"CCC(c1nnnn1Cc1cccs1)N1CCN(c2nc3ccc(NC(=O)c4ccccc4C)cc3s2)CC1 (stereo not drawn) [Compound 19, 2-methyl-N-(2-(4-(1-(1-(thiophen-2-ylmethyl)-1H-tetrazol-5-yl)propyl)piperazin-1-yl)benzothiazol-6-yl)benzamide]",VL (EC1.5>50 μM)
20,"CCC(c1nnnn1Cc1cccs1)N1CCN(c2nc3cc(OC)c(OC)c(OC)c3s2)CC1 (stereo not drawn) [Compound 20, 5.6.7-trimethaxy-2-(4-(1-(1-(thiophen-2-ylmethyl)-1H-tetrarol-5-yl)propyl)piperazin-1-yl)benzothiazole]",M (EC1.5-20 μM)
21,"CCC(c1nnnn1Cc1cccs1)N1CCN(c2nc3cccc(F)c3s2)CC1 (stereo not drawn) [Compound 21, 7-fluoro-2-(4-(1-(1-(thiophen-2-ylmethyl)-1H-tetrazol-5-yl)propyl)piperazin-1-yl)benzothiazole]",H (EC1.5<5 μM)
22,"CCC(c1nnnn1Cc1cccs1)N1CCN(c2nc3c([N+](=O)[O-])cccc3s2)CC1 (stereo not drawn) [Compound 22, 4-nitro-2-(4-(1-(1-(thiophen-2-ylmethyl)-1H-tetrazol-5-yl)propyl)piperazin-1-yl)benzothiazole]",L (EC1.5 20-50 μM)
23,"CCC(c1nnnn1Cc1cccs1)N1CCN(c2nc3c(N)cccc3s2)CC1 (stereo not drawn) [Compound 23, 4-aminn-2-(4-(1-(1-(thiophen-2-ylmethyl) 1H-tetrazol-5-yl)propyl)piperazin-1-yl)benzothiazole]",M (EC1.5-20 μM)
24,"CCC(c1nnnn1Cc1cccs1)N1CCN(c2nc3cccnc3s2)CC1 (stereo not drawn) [Compound 24, 2-(4-(1-(1-(thiophen-2-ylmethyl)-1H-tetrazol-5-yl)propyl)piperazin-1-yl)thiazolo[5,4-b]pyridine]",M (EC1.5-20 μM)
25,"CCC(c1nnnn1Cc1cccs1)N1CCN(c2nc3cc(F)ccc3s2)CC1 (stereo not drawn) [Compound 25, 5-fluoro-2-(4-(1-(1-(thiophen-2-ylmethyl)-1H-tetrazol-5-yl)propyl)piperazin-1-yl)benzothiazole]",L (EC1.5 20-50 μM)
26,"CCC(c1nnnn1Cc1cccs1)N1CCN(c2nc3cccc(C(F)(F)F)c3s2)CC1 (stereo not drawn) [Compound 26, 2-(4-(1-(1-(thiophen-2-ylmethyl)-1H-tetrazol-5-yl)propyl)piperazin-1-yl)-7-(trifluoramethyl)benzothiazole]",L (EC1.5 20-50 μM)
27,"CCC(NCCNc1nc2cccc(F)c2s1)c1nnnn1Cc1cccs1 (stereo not drawn) [Compound 27, N^1-(7-fluorobenzothiazol-2-yl)-N^2-(1-(1-(thiophen-2-ylmethyl)-1H-tetrazol-5-yl)propyl)ethane-1,2-diamine]",M (EC1.5-20 μM)
28,"CCC(c1nnnn1Cc1cccs1)N1CCN(c2nc3cc([N+](=O)[O-])ccc3s2)CC1 (stereo not drawn) [Compound 28, 5-nitro-2-(4-(1-(1-(thiophen-2-ylmethyl)-1H-tetrazol-5-yl)propyl)piperazin-1-yl)benzothiazole]",M (EC1.5-20 μM)
29,"CCC(c1nnnn1Cc1cccs1)N1CCN(c2nc3cc(N)ccc3s2)CC1 (stereo not drawn) [Compound 29, 5-amino-2-(4-(1-(1-(thiophen-2-ylmpthyl)-1H-tetrazol-5-yl)propyl)piperazin-1-yl)benzothiazole]",H (EC1.5<5 μM)
30,"CCC(c1nnnn1Cc1cccs1)N1CCN(c2nc3c(F)cccc3s2)CC1 (stereo not drawn) [Compound 30, 4-fluoro-2-(4-(1-(1-(thiophen-2-ylmethyl)-1H-tetrazol-5-yl)propyl)piperazin-1-yl)benzothiazole]",H (EC1.5<5 μM)
